The NIST ThermoML archive (doi:10.1021/acs.jced.6b00273)

Experiment: mn = molality of the nth substance listed, in mol/kg
Conditions: 101.33 kPa, Liquid; for viscosity: Capillary tube (Ostwald / Ubbelohde) method; for mass density: Vibrating tube method

Cn1cnc2c1c(=O)[nH]c(=O)n2C [1H-purine-2,6-dione, 3,7-dihydro-3,7-dimethyl-] + O
Conditions | mass density, 288.15 K [kg/m3] | mass density, 298.15 K [kg/m3] | mass density, 308.15 K [kg/m3] | mass density, 318.15 K [kg/m3] | viscosity, 288.15 K [mPa·s] | viscosity, 298.15 K [mPa·s] | viscosity, 308.15 K [mPa·s] | viscosity, 318.15 K [mPa·s]
m1 = 0.00051 | 999.157 | 997.073 | 994.088 | 990.268 | 1.138 | 0.891 | 0.72 | 0.597
m1 = 0.0007 | 999.167 | 997.083 | 994.097 | 990.277 | 1.139 | 0.891 | 0.72 | 0.597
m1 = 0.0009 | 999.177 | 997.093 | 994.107 | 990.287 | 1.139 | 0.891 | 0.72 | 0.597
m1 = 0.00098 | 999.182 | 997.097 | 994.111 | 990.291 | 1.139 | 0.891 | 0.72 | 0.597
m1 = 0.00123 | 999.195 | 997.11 | 994.123 | 990.303 | 1.139 | 0.891 | 0.72 | 0.597
m1 = 0.00147 | – | – | – | – | 1.139 | 0.891 | 0.72 | 0.597
m1 = 0.00148 | 999.209 | 997.123 | 994.135 | 990.314 | – | – | – | –
m1 = 0.00182 | – | – | – | – | 1.139 | 0.891 | 0.72 | 0.597
m1 = 0.00183 | 999.228 | 997.141 | 994.152 | 990.331 | – | – | – | –
m1 = 0.00212 | – | – | – | – | 1.139 | 0.891 | 0.72 | 0.597
m1 = 0.00213 | 999.244 | 997.156 | 994.167 | 990.346 | – | – | – | –

Cn1c(=O)c2[nH]cnc2n(C)c1=O [3,7-dihydro-1,3-dimethyl-1H-purine-2,6-dione] + O
Conditions | mass density, 288.15 K [kg/m3] | mass density, 298.15 K [kg/m3] | mass density, 308.15 K [kg/m3] | mass density, 318.15 K [kg/m3] | viscosity, 288.15 K [mPa·s] | viscosity, 298.15 K [mPa·s] | viscosity, 308.15 K [mPa·s] | viscosity, 318.15 K [mPa·s]
m1 = 0.00208 | 999.241 | 997.153 | 994.165 | 990.343 | – | – | – | –
m1 = 0.00213 | – | – | – | – | 1.139 | 0.891 | 0.719 | 0.597
m1 = 0.00284 | – | – | – | – | 1.139 | 0.892 | 0.72 | 0.597
m1 = 0.00285 | 999.283 | 997.192 | 994.204 | 990.379 | – | – | – | –
m1 = 0.00378 | 999.333 | 997.239 | 994.25 | 990.423 | – | – | – | –
m1 = 0.00394 | – | – | – | – | 1.14 | 0.892 | 0.72 | 0.598
m1 = 0.00479 | 999.388 | 997.291 | 994.3 | 990.472 | – | – | – | –
m1 = 0.00519 | – | – | – | – | 1.14 | 0.892 | 0.721 | 0.598
m1 = 0.00578 | 999.443 | 997.341 | 994.35 | 990.519 | – | – | – | –
m1 = 0.00617 | – | – | – | – | 1.141 | 0.893 | 0.722 | 0.599
m1 = 0.00689 | – | – | – | – | 1.141 | 0.893 | 0.722 | 0.599
m1 = 0.00699 | 999.509 | 997.404 | 994.41 | 990.578 | – | – | – | –
m1 = 0.00776 | 999.551 | 997.443 | 994.448 | 990.614 | – | – | – | –
m1 = 0.00819 | – | – | – | – | 1.142 | 0.894 | 0.723 | 0.599
m1 = 0.00921 | – | – | – | – | 1.142 | 0.895 | 0.723 | 0.6
m1 = 0.00934 | 999.638 | 997.526 | 994.528 | 990.691 | – | – | – | –
m1 = 0.00986 | 999.667 | 997.554 | 994.554 | 990.716 | – | – | – | –

Cn1c(=O)c2c(ncn2C)n(C)c1=O [caffeine] + O
Conditions | mass density, 288.15 K [kg/m3] | mass density, 298.15 K [kg/m3] | mass density, 308.15 K [kg/m3] | mass density, 318.15 K [kg/m3] | viscosity, 288.15 K [mPa·s] | viscosity, 298.15 K [mPa·s] | viscosity, 308.15 K [mPa·s] | viscosity, 318.15 K [mPa·s]
m1 = 0.00508 | – | – | – | – | 1.14 | 0.895 | 0.723 | 0.599
m1 = 0.0051 | 999.404 | 997.304 | 994.303 | 990.464 | – | – | – | –
m1 = 0.00693 | – | – | – | – | 1.142 | 0.896 | 0.724 | 0.6
m1 = 0.00695 | 999.505 | 997.399 | 994.39 | 990.545 | – | – | – | –
m1 = 0.009 | – | – | – | – | 1.144 | 0.896 | 0.724 | 0.601
m1 = 0.00902 | 999.619 | 997.504 | 994.488 | 990.637 | – | – | – | –
m1 = 0.01986 | – | – | – | – | 1.147 | 0.9 | 0.728 | 0.606
m1 = 0.01993 | 1000.22 | 998.06 | 995.013 | 991.121 | – | – | – | –
m1 = 0.02978 | – | – | – | – | 1.152 | 0.905 | 0.732 | 0.609
m1 = 0.02992 | 1000.77 | 998.576 | 995.497 | 991.571 | – | – | – | –
m1 = 0.03531 | 1001.07 | 998.853 | 995.759 | 991.812 | – | – | – | –
m1 = 0.03533 | – | – | – | – | 1.154 | 0.907 | 0.735 | 0.611
m1 = 0.03983 | – | – | – | – | 1.156 | 0.91 | 0.737 | 0.613
m1 = 0.04008 | 1001.34 | 999.101 | 996.001 | 992.025 | – | – | – | –
m1 = 0.04953 | – | – | – | – | 1.162 | 0.914 | 0.741 | 0.617
m1 = 0.04992 | 1001.89 | 999.619 | 996.484 | 992.483 | – | – | – | –

[Cl-].[Na+] [sodium chloride] + O
Conditions | mass density, m1 = 0.1 [kg/m3] | mass density, m1 = 0.25 [kg/m3] | mass density, m1 = 0.5 [kg/m3] | mass density, m1 = 0.75 [kg/m3] | mass density, m1 = 1 [kg/m3] | viscosity, m1 = 0.1 [mPa·s] | viscosity, m1 = 0.25 [mPa·s] | viscosity, m1 = 0.5 [mPa·s] | viscosity, m1 = 0.75 [mPa·s] | viscosity, m1 = 1 [mPa·s]
288.15 K | 1003.33 | 1009.78 | – | 1029.45 | 1039.16 | 1.15 | 1.16 | 1.178 | 1.214 | 1.254
298.15 K | 1001.12 | 1007.29 | – | 1026.12 | 1036.18 | 0.901 | 0.91 | 0.932 | 0.959 | 0.991
308.15 K | 998.046 | 1003.48 | – | 1023.12 | 1032.47 | 0.728 | 0.74 | 0.756 | 0.78 | 0.812
318.15 K | 994.175 | 999.875 | 1009.78 | 1018.94 | 1028.31 | 0.605 | 0.61 | 0.63 | 0.65 | 0.676
